{
  "source": "paper PMC12226970",
  "about": "“A subcellularly targeted photocaged inhibitor for mitochondrial carbonic anhydrase V” (Dalton Transactions (Cambridge, England : 2003), 2025)",
  "molecular_target": "T1, bCA-II (Bos taurus, UniProt P00921)",
  "T1 construct": "gene CA2",
  "T1 sequence (P00921 2-260)": "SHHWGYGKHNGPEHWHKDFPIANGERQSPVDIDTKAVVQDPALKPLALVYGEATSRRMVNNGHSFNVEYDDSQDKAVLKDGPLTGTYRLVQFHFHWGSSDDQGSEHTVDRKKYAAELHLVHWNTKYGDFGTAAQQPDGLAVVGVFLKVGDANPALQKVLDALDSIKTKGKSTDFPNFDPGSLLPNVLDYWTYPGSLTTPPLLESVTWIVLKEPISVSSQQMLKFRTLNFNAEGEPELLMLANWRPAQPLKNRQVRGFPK",
  "test": "NPA (4-nitrophenyl acetate) hydrolysis assay with isolated bCA-II after […] nm photodeprotection of PCEM",
  "assay_type": "biochemical",
  "data": [
    {"smiles": "NS(=O)(=O)c1nc2ccc(OCCC[n+]3ccccc3)cc2s1", "note": "[dPCEM]", "values": [
      {"measurement": "IC50", "value": 2.9, "unit": "µM"}
    ]}
  ]
}
